# Laboratory results published in patent US6759431B2, “Compositions and methods for treating or preventing diseases of body passageways” (Angiotech Pharmaceuticals, Inc., priority 1996, dated 2004).
# Several values for one entry are separate records, joined by “and”; a condition that tells them apart may be missing. Identical values can stand only once. Like-named read-outs stand apart in the source and are kept apart here.
# Columns and labels:
# [1] = system: normal human bone marrow cells; assay: Radiometric (Bactec) cytotoxicity, marrow cells; format: cell-based
# Description: Normal human bone marrow (histologically negative for tumor cells) was obtained from patients who were to have bone marrow transplants for their solid tumors but died before the marrow was used. After centrifugation, the buffy coat was removed and cells were treated with lysis buffer and washed twice with and then resuspended in RPMI 1640 with 20% HIFBS. The cells were drawn through a 25 g needle and counted.
# (§1) The Bactec system (Johnston Laboratories, Towson, Md.) is based on a clinical instrument which was developed to detect bacteria in blood cultures and has been used to screen for new antineoplastic agents. This radiometric system is a rapid, semiautomated system which utilizes the inhibition of the conversion of ^14C glucose to […] as an index of cytotoxicity. The Bactec machine automatically flushes out the ^14CO2 into an ion chamber where the signal of the radiolabelled CO2 is changed into a proportional electrical signal or growth index value on a scale of 1 to 1000. […] The growth index values of BMOV treated cells were compared to the growth index values of non-treated cells and the % survival compared to untreated controls was calculated.
# [2] = system: HT-29 colon, MCF-7 breast and SKMES1 non-small cell lung human tumor cell lines; assay: Radiometric (Bactec) cytotoxicity, tumor cell lines; format: cell-based; conditions: continuous exposure
# Description: A. Human Tumor Cell Lines The HT-29 colon, MCF-7 breast and SKMES1 non-small cell lung human tumor cell lines were obtained from the American Type Culture Collection. The HT-29 colon cell line was cultured in RPMI 1640 with 10% heat inactivated fetal bovine serum (HIFBS), the MCF-7 breast cell line in Iscove's modified Eagles medium with 5% HIFBS plus 10^-9 M insulin, and the SKMES1 lung cell line in Eagle's minimal essential medium with 10% non-heat inactivated FBS.
# as §1
# MDAY-D2 tumor = assay: BMOV microspheres, tumor growth in mice; format: in vivo; conditions: s.c.
# Description: (§2) Twenty of twenty-four mice were injected subcutaneously with […] of MDAY-D2 cells with density of 10×10^6/ml. On day 6 the mice were divided into 6 groups. Group 1, empty control, group 2, tumor control, group 3, were injected subcutaneously with 0.25 mg/100 ul BMOV, twice a day. Group 4 was injected IP with 20 mg PLLA microspheres containing 5 mg of BMOV. Group 5 was injected IP with 10 mg of BMOV microspheres on day 6 and day 9 respectively. Group 6 was injected intramuscularly with 10 mg of BMOV microspheres on day 6 and day 9. On day 16, the mice were sacrificed and tumors were dissected.
# [3] = Solubility of vanadium complexes in PBS/ALB; format: physicochemical; conditions: 10 mM PBS with albumin, pH 7.4
# Description: Quantitative analysis (UV/VIS spectrophometric analysis) was done with different concentrations of vanadium solutions to obtain the wavelengths of peak absorbance and the calibration equations. Solubility of vanadium was studies in 10 mM phosphate buffered saline with albumin (PBS/ALB) (pH 7.4). 1%, 5%, 10%, and 20% (% vanadium complex in PCL) of each organic complex form of vanadium were encapsulated in a biodegradable polymer PCL and/or in blends of PLC with MePEG (MW 350) to produce a polymeric drug delivery product called a “thermopaste”. In vitro release studies of the various forms of vanadium from thermopastes were carried out at 37° C. in PBS/ALB with vanadium release measured by UV/VIS absorbance spectroscopy.
# [4] = Body weights of mice, BMOV microsphere study; format: in vivo; conditions: 0.25 mg × 1, subcutaneous, in g (unit assumed)
# Description: as §2
# CAM = format: in vivo, chick; conditions: for drug loading that was toxic to the embryo: chick, in vivo
# Description: Vinca alkaloids (vinblastine and vincristine) were ground with a pestle and mortar to reduce the particle size to below 5 microns. They were then mixed as a dry powder with polycaprolactone (molecular wt. 18000 Birmingham Polymers, AL USA). The mixture is heated to 65° C. for 5 minutes and the molten polymer/agent mixture is stirred into a smooth paste for 5 minutes. The molten paste is then taken into a 1 ml syringe and extruded to form 3 mg pellets. These pellets were then tested in the CAM assay.
# [5] = Release from 50:50 ELVAX:poly-l-lactic acid microspheres, tumbling at 37° C.; format: physicochemical; conditions: 18 hours tumbling at 37° C.
# Description: Five hundred micrograms of either paclitaxel or baccatin (a paclitaxel analog, available from Inflazyme Pharmaceuticals Inc., Vancouver, British Columbia, Canada) are dissolved in 1 ml of a 50:50 ELVAX:poly-1-lactic acid mixture in dcm. Microspheres are then prepared in a dissolution machine (Six-spindle dissolution tester, VanderKanp, Van Kell Industries Inc., U.S.A.) in triplicate at 200 rpm, 42° C., for 3 hours. Microspheres so prepared are washed twice in water and sized on the microscope.
# Determination of paclitaxel encapsulation is undertaken in a uv/vis assay (uv/vis lambda max. at 237 nm, fluorescence assay at excitation 237, emission at 325 nm; Fluorescence results are presented in square brackets [ ]).
# [6] = Solubility of paclitaxel in cyclodextrin solutions; format: physicochemical; conditions: 50% HPβCD in water, 37° C.
# Description: Excess amounts of paclitaxel (5 mg) were added to aqueous solutions containing various concentrations of γ-CD, HPγ-CD, or HPβ-CD and tumbled gently for about 24 hours at 37° C. After equilibration, aliquots of the suspension were filtered through a 0.45 μm membrane filter (Millipore), suitably diluted and analyzed using HPLC. The mobile phase was composed of a mixture of acetonitrile, methanol and water (58:5:37) at a flow rate of 1.0 ml min^−1.
# [7] = Stability of paclitaxel in cyclodextrin solutions; format: physicochemical
# Description: The solutions containing 20% HPβCD or HPγCD had pH values of 3.9 and 5.2, respectively. The stability of paclitaxel in cyclodextrin solutions was investigated by assaying paclitaxel in solutions (20 μg ml^−1) containing 10 or 20% HPγ-CD or HPβ-CD in either water or a 50:50 water-ethanol mixture at 37° C. or 55° C. at various time intervals. In addition, stability of paclitaxel in solutions (1 μg/ml) containing 1%, 2% or 5% HPβCD at 55° C. were determined.
# [8] = Complexation of paclitaxel with cyclodextrins (stability constants); format: physicochemical; conditions: for estimated stability constants for first order complexes of paclitaxel-cyclodextrins / stability constants for second order complexes of paclitaxel-cyclodextrins: water, 37° C.
# Description: Excess amounts of paclitaxel (5 mg) were added to aqueous solutions containing various concentrations of γ-CD, HPγ-CD, or HPβ-CD and tumbled gently for about 24 hours at 37° C. After equilibration, aliquots of the suspension were filtered through a 0.45 μm membrane filter (Millipore), suitably diluted and analyzed using HPLC. […] Aliquots were taken at various time intervals and assayed for paclitaxel.
# [9] = fluorescence assay (square brackets)
compound,measurement,setting,value
"Cc1occc(=O)c1[O-].Cc1occc(=O)c1[O-].[O]=[V+2] [BMOV, Bis[maltolato(oxovanadium)] (IV)]]",survival compared to untreated controls,"[1]; continuous exposure, 50 μM",49%
same,effect on cells,"[1]; one hour exposure, up to 50 μM",very little effect
same,antineoplastic effect in vitro,[2],antineoplastic effect of BMOV have been shown in vitro
same,"Tumor weight, Average",MDAY-D2 tumor,0.15
same,"Tumor weight, individual mice",MDAY-D2 tumor; listed as BMOV solution,0.04 and 0.4 and 0.12 and 0.07
same,"rate and extent of solubility, order",[3],V5>BMOV & BEMOV>PRC-V
same,"Body weights, Average",[4],17.87
same,"Body weights, individual mice",[4]; listed as BMOV Solution,18.4 and 17.3 and 18 and 17.8
"CC[C@]1(O)C[C@@H]2CN(CCc3c([nH]c4ccccc34)[C@@](C(=O)OC)(c3cc4c(cc3OC)N(C)[C@H]3[C@@](O)(C(=O)OC)[C@H](OC(C)=O)[C@]5(CC)C=CCN6CC[C@]43[C@@H]65)C2)C1 [Vinblastine, vinblastine]",angiogenesis inhibition on the CAM,"CAM; 0.25%, 0.5% and 1% in PCL pellets",effective in inhibiting angiogenesis
same,drug loading that was toxic to the embryo,CAM,exceeding 2%
CC(=O)O[C@H]1C(=O)[C@@]2(C)[C@H]([C@H](OC(=O)c3ccccc3)[C@]3(O)C[C@H](OC(=O)[C@H](O)[C@@H](NC(=O)c4ccccc4)c4ccccc4)C(C)=C1C3(C)C)[C@]1(OC(C)=O)CO[C@@H]1C[C@@H]2O [paclitaxel],percent of total released from the microspheres,[5]; [9],6%
same,percent of total released from the microspheres,[5]; uv/vis assay,10.3%
same,fold increase over the solubility of paclitaxel in water,[6],~2000 fold
same,degradation rate constant k (pseudo-first order),"[7]; 1 μg/ml paclitaxel, 1% HPβCD, 55° C.",0.00338 h⁻¹
same,degradation rate constant,"[7]; 10% HPβCD (FIG. 47 legend: 20 μg ml^−1, 37° C.)",0.00178 h⁻¹
same,degradation rate constant,"[7]; 10% HPγCD (FIG. 47 legend: 20 μg ml^−1, 37° C.)",0.00096 h⁻¹
CC[C@]1(O)C[C@H]2CN(CCc3c([nH]c4ccccc34)[C@@](C(=O)OC)(c3cc4c(cc3OC)N(C=O)[C@H]3[C@@](O)(C(=O)OC)[C@H](OC(C)=O)[C@]5(CC)C=CCN6CC[C@]43[C@@H]65)C2)C1 [vincristine],angiogenesis inhibition on the CAM,CAM; 0.5% and 0.1% drug loading in PCL pellets,all of the CAMs tested
same,drug loading that was toxic to the embryo,CAM,exceeding 2%
"OC[C@H]1O[C@@H]2O[C@H]3[C@H](O)[C@@H](O)[C@@H](O[C@H]4[C@H](O)[C@@H](O)[C@@H](O[C@H]5[C@H](O)[C@@H](O)[C@@H](O[C@H]6[C@H](O)[C@@H](O)[C@@H](O[C@H]7[C@H](O)[C@@H](O)[C@@H](O[C@H]8[C@H](O)[C@@H](O)[C@@H](O[C@H]9[C@H](O)[C@@H](O)[C@@H](O[C@H]1[C@H](O)[C@H]2O)O[C@@H]9CO)O[C@@H]8CO)O[C@@H]7CO)O[C@@H]6CO)O[C@@H]5CO)O[C@@H]4CO)O[C@@H]3CO [γ-CD, γ-cyclodextrin]",estimated stability constants for first order complexes of paclitaxel-cyclodextrins,[8],3.1 M⁻¹
same,stability constants for second order complexes of paclitaxel-cyclodextrins,[8],785 M⁻¹
Hydroxypropyl-β-cyclodextrin [HPβCD],times lower than the stability constant in the absence of ethanol,[8]; 50% ethanol,about 300 times
same,apparent stability constant for the complexation with paclitaxel,[8]; in the presence of 50% ethanol,26.57 M⁻¹
same,estimated stability constants for first order complexes of paclitaxel-cyclodextrins,[8],7.2 M⁻¹
same,stability constants for second order complexes of paclitaxel-cyclodextrins,[8],7965 M⁻¹
baccatin,percent of total released from the microspheres,[5]; [9],60%
same,percent of total released from the microspheres,[5]; uv/vis assay,55%
hydroxypropyl-γ-cyclodextrin [HPγCD],estimated stability constants for first order complexes of paclitaxel-cyclodextrins,[8],5.8 M⁻¹
same,stability constants for second order complexes of paclitaxel-cyclodextrins,[8],1886 M⁻¹
